# Where a name gives a salt, the structure may show the parent alone.
# Target: βarr2 (Rattus norvegicus, UniProt P29067)
# Assay: Negative-stain electron microscopy, 2D class averages of βarr2
# Design: final βarr2 (truncated βarr2 at 394) concentration of ˜1 mg/mL; made in house
# Experimental: To prepare for EM visualization of the architecture and structural organization of βarr2-Cmpd30 complexes, purified βarr2 (394) was diluted to 0.5 μM and incubated with 5 μM Cmpd-30 or vehicle (DMSO) in HN buffer (20 mM HEPES pH 7.4 and 150 mM NaCl) for 7 min at room temperature followed by dilution 10× into HN buffer containing 1 μM Cmpd-30, before negative staining. The positive control, βarr2 bound to IP6 sample was prepared similarly (5 μM and 250 μM, respectively) and was diluted 100× into HN buffer containing 10 μM IP6. Grids were prepared using conventional negative-staining protocols as described previously (Peisley, A. & Skiniotis, G. 2D Projection Analysis of GPCR Complexes by Negative Stain Electron Microscopy. Methods Mol Biol 1335, 29-38, doi:10.1007/978-1-4939-2914-6_3 (2015). Briefly, 3 μL of samples were applied onto a glow-discharged EM carbon-coated copper grid, adsorbed on the grid surface, blotted, stained, and air dried before imaging. EM grids were examined with a FEI Tecnai G2 Twin electron microscope and operated at an acceleration voltage of 120 kV. Images were recorded with an Eagle 2K CCD camera at a magnification of ×65,200 and a defocus value of ˜1.5 μm. Two-dimensional EM reference-free alignment and classification of particle projections were performed with the iterative stable alignment and clustering procedure (ISAC)(Yang, Z., et al., Iterative stable alignment and clustering of 2D transmission electron microscope images. Structure 20, 237-247, doi:10.1016/j.str.2011.12.007 (2012)). EM single particles were both automatically and manually selected using Boxer (part of the EMAN 2.1 software suite)(Tang, G. et EMAN2: an extensible image processing suite for electron microscopy. J Struct Biol 157, 38-46, doi:10.1016/j.jsb.2006.05.009 (2007)). A total of ˜250,000 0° particles projections were picked representing all the three βarr2 samples (with vehicle, Cmpd-30 or IP6) and windowed into 96×96-pixel images (with the RELION 2.1-beta-1 software package) and subjected to ISAC. […]
# Sequence of βarr2 (P29067 1-394): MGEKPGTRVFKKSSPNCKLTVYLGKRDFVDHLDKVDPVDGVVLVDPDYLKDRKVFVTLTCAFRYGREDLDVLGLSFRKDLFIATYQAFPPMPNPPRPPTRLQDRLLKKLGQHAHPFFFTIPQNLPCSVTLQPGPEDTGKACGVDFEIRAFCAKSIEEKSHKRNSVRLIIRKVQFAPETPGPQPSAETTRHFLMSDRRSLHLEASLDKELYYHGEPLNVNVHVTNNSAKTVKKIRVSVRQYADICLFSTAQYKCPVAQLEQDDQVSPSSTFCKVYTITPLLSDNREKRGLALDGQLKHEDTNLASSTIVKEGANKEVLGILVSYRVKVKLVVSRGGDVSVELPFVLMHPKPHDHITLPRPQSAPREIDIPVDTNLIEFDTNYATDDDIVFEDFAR
compound,measurement,setting,value
"CN(C)c1n/c(=N/Cc2ccco2)ss1 [Cmpd-30, 5-(furan-2-ylmethylimino)-N,N-dimethyl-1,2,4-dithiazol-3-amine;hydrobromide]",particle average width of βarr2 class averages,control βarr2 ~72 Å,80-90 Å
same,class averages represented as homo-oligomers (dimers/trimers),control βarr 97% monomeric,95%

# — US20220315574A1, “Beta-Arrestin-Modulating Compounds and Methods of Using Same” (Duke University, priority 2019, published 2022)
